According to patent publication US20160052898A1, “NOVEL COMPOUNDS” (BAYER PHARMA AKTIENGESELLSCHAFT, priority 2013, published 2016):
Counter-ions that a name gives are not always drawn.

How the values were obtained:
[1] = system: constitutive active colorectal cancer cell (CRC) Wnt pathway; experiment: HCT116 Super TopFlash cellular reporter assay (constitutive active Wnt pathway); assay type: cell-based; details: Homo sapiens, HCT-116, 36 h, HCT116 TOP reporter cells, luciferase expression, 36 hours incubation, 50 μM to 15 nM
Procedure: In order to discover and characterize small molecules which inhibit the constitutive active colorectal cancer cell (CRC) Wnt pathway, a cellular reporter assay was employed. The corresponding assay cell was generated by transfection of the colorectal cancer cell line HCT116 (ATCC, #CCL-247) with the Super TopFlash vector (Morin, Science 275, 1997, 1787-1790; Molenaar et al., Cell 86 (3), 1996, 391-399). The HCT116 cell line is cultivated at 37° C. and 5% CO2 in DMEM/F-12 (Life Technologies, #11320-074), supplemented with 2 mM glutamine, 20 mM HEPES, 1.4 mM pyruvate, 0.15% Na-bicarbonate and 10% foetal bovine serum (GIBCO, #10270), this cancer cell line is pathophysiological relevant since it carries a deletion of position S45 in the β-catenin gene, leading to constitutive active Wnt signaling. Stable transfectants were generated by cotransfection with pcDNA3 and selection of stable transfected cells with 1 mg/ml G418.
(§1) In a parallel approach, HCT116 cells were cotransfected with the FOP control vector and pcDNA3. The FOP vector is identical to the TOP construct, but it contains instead of functional TCF elements a randomized, non-functional sequence. For this transfection a stable transfected cell line was generated as well.
(§2) In preparation of the assay, the two cell lines were plated 24 hrs before at 10000 cells per well of a 384 micro titre plate (MTP) in 30 μL growth medium. Selective inhibitory activity for small molecules on the mutated Wnt pathway was determined after parallel incubation of both (TOP and FOP) HCT116 reporter cell lines with a compound dilution series from 50 μM to 15 nM in steps of 3.16-fold dilutions in CAFTY buffer (130 mM NaCl, 5 mM KCl, 20 mM HEPES, 1 mM MgCl2, 5 mM NaHCO3, pH 7.4) containing 2 mM Ca^2+ and 0.01% BSA. The compounds were thereby serially prediluted in 100% DMSO and thereafter in addition 50 fold into the CAFTY compound dilution buffer (described above). From this dilution 10 μL were added to the cells in 30 μL growth medium and incubated for 36 hours at 37° C. and 5% CO2. Thereafter luciferase assay buffer (1:1 mixture of luciferase substrate buffer (20 mM Tricine, 2.67 mM MgSO4, 0.1 mM EDTA, 4 mM DTT, 270 μM Coenzyme A, 470 μM Luciferin, 530 μM ATP, ph adjusted to pH 7.8 with a sufficient volume of 5M NaOH) and Triton buffer (30 mL Triton X-100, 115 mL glycerol, 308 mg Dithiothreitol, 4.45 g Na2HPO4.2 H2O, 3.03 g Tris.HCL, ad 1 l H20, pH 7.8) was added as equal volume to the compound solution on the cells to determine luciferase expression as a measure of Wnt signaling activity in a luminometer.

[2] = system: HCT116 FOP control reporter cell line; experiment: HCT116 FOP control vector reporter assay (non-functional TCF elements); assay type: cell-based; details: Homo sapiens, HCT-116, 36 h, HCT116 FOP control reporter cells, luciferase expression, 36 hours incubation, 50 μM to 15 nM; read-out: HCT116 FOPFlash IC50
Procedure: as §1, §2

| IC50 [1] [µM] | IC50 [2] [µM] | SMILES |
| --- | --- | --- |
| 2 | ≥ 50 | COc1ccc(NC(=O)c2ccc(-c3ccccc3)cc2)cc1NC(=O)CN1CCCC(OC)C1 (centres unmarked) [Example 38, N-(4-methoxy-3-{[(3-methoxypiperidin-1-yl)acetyl]amino}phenyl)biphenyl-4-carboxamide] |
| 1.11 | ≥ 50 | COCCNCC(=O)Nc1cc(NC(=O)c2ccc(-c3ccccc3)cc2)ccc1OC [Example 42, N-(4-methoxy-3-{[N-(2-methoxyethyl)glycyl]amino}phenyl)biphenyl-4-carboxamide] |
| 2.9 | ≥ 50 | COc1ccc(NC(=O)c2ccc(-c3ccccc3)cc2)cc1NC(=O)CN1CCOC[C@H]1CCO [Example 44, N-[3-({[(3R)-3-(2-hydroxyethyl)morpholin-4-yl]acetyl}amino)-4-methoxyphenyl]biphenyl-4-carboxamide] |
| 3.85 | ≥ 50 | COc1ccc(NC(=O)c2ccc(-c3ccccc3)cc2)cc1NC(=O)CN1CCC(O)CC1 [Example 45, N-(3-{[(4-hydroxypiperidin-1-yl)acetyl]amino}-4-methoxyphenyl)biphenyl-4-carboxamide] |
| 3.45 | ≥ 50 | COc1ccc(NC(=O)c2ccc(-c3ccccc3)cc2)cc1NC(=O)CN1CCC2(CCO2)C1 (centres unmarked) [Example 46, N-{4-methoxy-3-[(1-oxa-6-azaspiro[3.4]oct-6-ylacetyl)amino]phenyl}biphenyl-4-carboxamide] |
| 0.718 | 33.5 | COc1ccc(NC(=O)c2ccc(-c3ccccc3)cc2)cc1NC(=O)CN1CCN(C)CC1 [Example 47, N-(4-methoxy-3-{[(4-methylpiperazin-1-yl)acetyl]amino}phenyl)biphenyl-4-carboxamide] |
| 2.65 | ≥ 50 | COCCN(C)CC(=O)Nc1cc(NC(=O)c2ccc(-c3ccccc3)cc2)ccc1OC [Example 49, N-(4-methoxy-3-{[N-(2-methoxyethyl)-N-methylglycyl]amino}phenyl)biphenyl-4-carboxamide] |
| 3.64 | 23 | CCN1CCN(CC(=O)Nc2cc(NC(=O)c3ccc(-c4ccccc4)cc3)ccc2OC)CC1 [Example 50, N-(3-{[(4-ethylpiperazin-1-yl)acetyl]amino}-4-methoxyphenyl)biphenyl-4-carboxamide] |
| 3.18 | ≥ 50 | COc1ccc(NC(=O)c2ccc(-c3ccccc3)cc2)cc1NC(=O)CN1CCN(S(C)(=O)=O)CC1 [Example 51, N-[4-methoxy-3-({[4-(methylsulfonyl)piperazin-1-yl]acetyl}amino)phenyl]biphenyl-4-carboxamide] |
| 0.47 | ≥ 50 | COc1ccc(NC(=O)c2ccc(-c3ccccc3)cc2)cc1NC(=O)CN1CCOCC1 [Example 52, N-{4-methoxy-3-[(morpholin-4-ylacetyl)amino]phenyl}biphenyl-4-carboxamide] |
| 0.35 | ≥ 50 | COc1ccc(NC(=O)c2ccc(-c3ccccc3)cc2)cc1NC(=O)[C@H](C)N1CCOCC1 [Example 54, N-(4-methoxy-3-{[(2S)-2-(morpholin-4-yl)propanoyl]amino}phenyl)biphenyl-4-carboxamide] |
| 0.834 | ≥ 50 | COc1ccc(NC(=O)c2ccc(-c3ccccc3)cc2)cc1NC(=O)[C@@H](C)N1CCOCC1 [Example 55, N-(4-methoxy-3-{[(2R)-2-(morpholin-4-yl)propanoyl]amino}phenyl)biphenyl-4-carboxamide] |
| 0.49 | ≥ 50 | COc1ccc(NC(=O)c2ccc(-c3ccccc3)cc2)cc1NC(=O)[C@@H](C)N1CC2CCC(C1)O2 [Example 57, N-(4-methoxy-3-{[(2R)-2-(8-oxa-3-azabicyclo[3.2.1]oct-3-yl)propanoyl]amino}phenyl)biphenyl-4-carboxamide] |
| 0.582 | ≥ 50 | C[C@H](C(=O)Nc1cc(NC(=O)c2ccc(-c3ccccc3)cc2)ccc1OC(F)(F)F)N1CC2CCC(C1)O2 [Example 60, N-[3-{[(2R)-2-(8-oxa-3-azabicyclo[3.2.1]oct-3-yl)propanoyl]amino}-4-(trifluoromethoxy)phenyl]biphenyl-4-carboxamide] |
| 0.265 | ≥ 50 | C[C@H](C(=O)Nc1cc(NC(=O)c2ccc(-c3ccccc3)cc2)ccc1OC(F)(F)F)N1CCOCC1 [Example 63, N-[3-{[(2R)-2-(morpholin-4-yl)propanoyl]amino}-4-(trifluoromethoxy)phenyl]biphenyl-4-carboxamide] |
| 3.5 | 48 | COc1ccc(NC(=O)c2ccc(-c3ccccc3)cc2)cc1N(Cc1ccccc1)C(=O)CN1CCOCC1 [Example 64, N-{3-[benzyl(morpholin-4-ylacetyl)amino]-4-methoxyphenyl}biphenyl-4-carboxamide] |
| 2.2 | 28 | COc1ccc(NC(=O)c2ccc(-c3ccccc3)cc2)cc1N(C)C(=O)CN1CCOCC1 [Example 65, N-{4-methoxy-3-[methyl(morpholin-4-ylacetyl)amino]phenyl}biphenyl-4-carboxamide] |
| 0.21 | 9.8 | CC(C)(C)c1ccc(NC(=O)c2ccc(-c3ccccc3)cc2)cc1NC(=O)CN1CCOCC1 [Example 67, N-{4-tert-butyl-3-[(morpholin-4-ylacetyl)amino]phenyl}biphenyl-4-carboxamide] |
| 0.513 | ≥ 50 | O=C(CN1CCOCC1)Nc1cc(NC(=O)c2ccc(-c3ccccc3)cc2)ccc1Br [Example 68, N-{4-bromo-3-[(morpholin-4-ylacetyl)amino]phenyl}biphenyl-4-carboxamide] |
| 0.81 | 9.3 | O=C(CN1CCOCC1)Nc1cc(NC(=O)c2ccc(-c3ccccc3)cc2)ccc1Cl [Example 69, N-{4-chloro-3-[(morpholin-4-ylacetyl)amino]phenyl}biphenyl-4-carboxamide] |
| 1.35 | ≥ 50 | Cc1ccc(NC(=O)c2ccc(-c3ccccc3)cc2)cc1NC(=O)CN1CCOCC1 [Example 70, N-{4-methyl-3-[(morpholin-4-ylacetyl)amino]phenyl}biphenyl-4-carboxamide] |
| 3.95 | ≥ 50 | COC(=O)c1cccc(-c2ccc(C(=O)Nc3ccc(OC)c(NC(=O)CN4CCOCC4)c3)cc2)c1 [Example 77, methyl 4′-({4-methoxy-3-[(morpholin-4-ylacetyl)amino]phenyl}carbamoyl)biphenyl-3-carboxylate] |
| 2.9 | ≥ 50 | COc1ccc(NC(=O)c2ccc(-c3cccc(C(F)(F)F)c3)cc2)cc1NC(=O)CN1CCOCC1 [Example 78, N-{4-methoxy-3-[(morpholin-4-ylacetyl)amino]phenyl}-3′-(trifluoromethyl)biphenyl-4-carboxamide] |
| 2.03 | ≥ 50 | O=C(CN1CCOCC1)Nc1cc(NC(=O)c2ccc(-c3ccccc3)cc2)ccc1O [Example 84, N-{4-hydroxy-3-[(morpholin-4-ylacetyl)amino]phenyl}biphenyl-4-carboxamide] |
| 0.196 | 34 | COCCCOCc1ccc(C(=O)Nc2ccc(-c3ccccc3)cc2)cc1NC(=O)CN1CCOCC1 [Example 87, N-(biphenyl-4-yl)-4-[(3-methoxypropoxy)methyl]-3-[(morpholin-4-ylacetyl)amino]benzamide] |
| 0.676 | 20.2 | NCCCOc1ccc(C(=O)Nc2ccc(-c3ccccc3)cc2)cc1NC(=O)C1(N2CCOCC2)CC1 [Example 89, 4-(3-aminopropoxy)-N-(biphenyl-4-yl)-3-({[1-(morpholin-4-yl)cyclopropyl]carbonyl}amino)benzamide hydrochloride (1:1)] |
| 0.262 | ≥ 50 | COCCCOc1ccc(C(=O)Nc2ccc(-c3ccccc3)cc2)cc1NC(=O)CN1CCOCC1 [Example 91, N-(biphenyl-4-yl)-4-(3-methoxypropoxy)-3-[(morpholin-4-ylacetyl)amino]benzamide] |
| 0.448 | ≥ 50 | COCCOc1ccc(C(=O)Nc2ccc(-c3ccccc3)cc2)cc1NC(=O)CN1CCOCC1 [Example 92, N-(biphenyl-4-yl)-4-(2-methoxyethoxy)-3-[(morpholin-4-ylacetyl)amino]benzamide] |
